The text below walks through data of publication doi:10.1101/2025.02.03.636334v1 (biorxiv, 2025).

SMILES strings stand for the structures. In brackets after ≈: the same amount, converted by molar mass.

The experiment relates to M. tuberculosis H37Rv. The experiment is described as follows: microbe, parasite or virus in culture. Particulars: Mycobacterium tuberculosis, 192 h, read-out: Mtb MIC (µM).
As for `CN1C(=CC=NNC(=O)c2cn(-c3ccccc3)nc2-c2ccccc2)C(C)(C)c2ccccc21` [Z44838075], the MIC was found to be 100 µM (≈ 46.2 µg/mL).

As for `O=C1C(=CNc2cccc(C(F)(F)F)c2)c2ccccc2C(=O)N1c1cccc(C(F)(F)F)c1` [Z31274934], the MIC was 6.2 µM (≈ 2.95 µg/mL).

In the case of `Cc1ccc(-c2cn3c(C(=S)Nc4ccc(F)cc4)c(-c4ccccc4)c4c3n2CCCC4)cc1` [Z57009953], the MIC came to 100 µM (≈ 48 µg/mL).

As for `O=S(=O)(c1cccc(C(F)(F)F)c1)N1CCN(c2nc(-c3ccccc3)nc3ccccc23)CC1` [Z31104682], the MIC is 100 µM (≈ 49.9 µg/mL).

As to `CC(NC(=O)CN1C(=O)NC(c2ccccc2)(c2ccccc2)C1=O)c1ccc(Cl)cc1` (stereo not drawn) [Z14475560], the MIC worked out at 100 µM (≈ 44.8 µg/mL).

Take `c1ccc(C(c2ccccc2)N2CCN(c3nc4ccccc4c4nc(-c5cccnc5)nn34)CC2)cc1` [Z1157836627]: the MIC was determined as 100 µM (≈ 49.8 µg/mL).

As for `Cc1ccc(-c2cc(C(=O)Oc3ccc(Oc4ccccc4)cc3)c3ccccc3n2)cc1` [Z30908638], the MIC is 100 µM (≈ 43.1 µg/mL).

Take `O=C(c1ccccc1)C1CCN(C2c3ccccc3-c3ccccc32)CC1` [Z646019388]: the MIC was 100 µM (≈ 35.3 µg/mL).

As to `O=C(c1ccc(F)cc1)N1CCN(Cc2nc3sc4c(c3c(=O)[nH]2)CCCC4)CC1` [Z26985512], the MIC came to 25 µM (≈ 10.7 µg/mL).

Regarding `Cc1cccc(C2CC(c3ccc(N(C)C)cc3)=NN2c2nc(-c3ccc(Cl)cc3)c3ccccc3n2)c1` (stereo not drawn) [Z1898794184], the MIC amounted to 100 µM (≈ 51.8 µg/mL).

`Cc1ccc(-c2cc(C(=O)N3CCN(Cc4nc5ccccc5s4)CC3)c3ccccc3n2)cc1` [Z28583171]: the MIC came out at 6.2 µM (≈ 2.97 µg/mL).

In the case of `Clc1ccc2c(-c3ccccc3)cc(-c3c(Cl)nc4ccc(Br)cc4c3-c3ccccc3)nc2c1` [Z2039275273], the MIC turned out to be 100 µM (≈ 55.6 µg/mL).

For `Cc1ccc2c(-c3ccccc3)nc(NN=Cc3c[nH]c4ccccc34)nc2c1` [Z1409330734], the MIC came out at 50 µM (≈ 18.9 µg/mL).

Turning to `O=C(CN1CCN(C(=O)c2cccc3ccccc23)CC1)Nc1ccccc1Cc1ccccc1` [Z316384350], the MIC was 25 µM (≈ 11.6 µg/mL).

On to `c1cncc(-c2nc(N3CCN(Cc4ccc5c(c4)CCO5)CC3)c3ccccc3n2)c1` [Z128095220], for which the MIC is 25 µM (≈ 10.6 µg/mL).

For the molecule `O=C(OCc1nc2sc3c(c2c(=O)[nH]1)CCCC3)c1cn(-c2ccccc2)nc1-c1ccccc1` [Z53787257], the MIC came out at 100 µM (≈ 48.3 µg/mL).

Consider `O=C(c1nn(Cc2ccccc2)c(=O)c2ccccc12)N1CCN(Cc2ccc3c(c2)CCO3)CC1` [Z102666506], for which the MIC came to 100 µM (≈ 48.1 µg/mL).

For the molecule `O=C(CN1C(=O)NC(c2ccccc2)(c2ccccc2)C1=O)Nc1ccccc1C(=O)NC1CCCC1` [Z54675683], the MIC came out at 100 µM (≈ 49.7 µg/mL).

Consider `N#Cc1ccc(CN2CCN(C(=O)c3cc(-c4ccccc4)nn3-c3ccccc3)CC2)cc1` [Z28887309], for which the MIC was found to be 50 µM (≈ 22.4 µg/mL).

On to `O=c1[nH]c(CN2CCN(C(c3ccc(F)cc3)c3ccc(F)cc3)CC2)nc2sc3c(c12)CCC3` [Z105382408], for which the MIC came out at 100 µM (≈ 49.3 µg/mL).

Turning to `CC1(c2ccc3ccccc3c2)NC(=O)N(CC(=O)Nc2nc(-c3ccc4c(c3)CCC4)cs2)C1=O` (stereo not drawn) [Z28888852], the MIC is 3.1 µM (≈ 1.54 µg/mL).

`c1ccc(-c2ccc(Oc3nc(-c4ccccc4)cc(-c4ccccc4)n3)cc2)cc1` [Z1037335802]: the MIC is 100 µM (≈ 40 µg/mL).

As for `Cc1cc(NC(=O)c2cc(-c3ccc(Cl)cc3)nc3ccccc23)n(-c2ccccn2)n1` [Z56802924], the MIC stood at 100 µM (≈ 44 µg/mL).

On to `Fc1ccc(C2Oc3ccccc3C3CC(c4ccc(-c5ccccc5)cc4)=NN32)cc1` (stereo not drawn) [Z56765649], for which the MIC was found to be 25 µM (≈ 10.5 µg/mL).

On to `O=c1[nH]c(SCc2cc(F)cc3c2OC(c2ccccc2)OC3)nc2sc3c(c12)CCCC3` (stereo not drawn) [Z13684502], for which the MIC was 100 µM (≈ 48.1 µg/mL).

Turning to `O=C(Nc1ccc(F)c(S(=O)(=O)Nc2cccc(C(F)(F)F)c2)c1)c1cc2ccccc2o1` [Z33249504], the MIC was 50 µM (≈ 23.9 µg/mL).

Consider `O=C1NC2(CCCC2)C(=O)N1Cc1cn(-c2ccccc2)nc1-c1ccc(Cl)cc1` [Z25701709], for which the MIC was 100 µM (≈ 42.1 µg/mL).

With `Cc1ccc2nc(-c3ccc(NC(=O)c4cc(-c5ccccc5)nn4-c4ccccc4)cc3)sc2c1` [Z27663993], the MIC stood at 100 µM (≈ 48.7 µg/mL).

For `NC(=O)C1Cc2ccccc2CN1C(=O)CCc1c(-c2ccc(F)cc2)[nH]c2ccccc12` (stereo not drawn) [Z143202488], the MIC came out at 100 µM (≈ 44.2 µg/mL).

As to `O=C(Nc1ccc2oc3ccccc3c2c1)c1ccc(=O)n(Cc2ccccc2)n1` [Z30534850], the MIC stood at 100 µM (≈ 39.5 µg/mL).

With `O=C(c1ccccc1)c1ccc(Cl)cc1Nc1cc(-c2ccccc2)c2cc(Cl)ccc2n1` [Z2196034878], the MIC was 100 µM (≈ 46.9 µg/mL).

As for `Cc1ccc(-c2ccsc2C(=O)NNS(=O)(=O)c2ccc3oc(=O)ccc3c2)cc1` [Z299677296], the MIC was determined as 100 µM (≈ 44.1 µg/mL).

Turning to `Cc1ccc(-c2nc(N3N=C(c4cccc(Br)c4)CC3c3cccc(Br)c3)nc3ccccc23)cc1` (stereo not drawn) [Z1558581154], the MIC was determined as 100 µM (≈ 59.8 µg/mL).

In the case of `O=C(CCc1nc2c(cnn2-c2ccccc2)c(=O)[nH]1)N1CCCC1c1ccc2c(c1)OCCCO2` (stereo not drawn) [Z140090268], the MIC was 100 µM (≈ 48.6 µg/mL).

On to `O=C(CN1C(=O)NC2(CCOc3ccccc32)C1=O)c1c(-c2ccc(F)cc2)[nH]c2ccccc12` (stereo not drawn) [Z89763517], for which the MIC was 3.1 µM (≈ 1.46 µg/mL).

As to `O=C(COC(=O)c1cc(-c2cccc3ccccc23)nc2ccccc12)Nc1cc(C(F)(F)F)ccc1N1CCOCC1` [Z18816890], the MIC stood at 100 µM (≈ 58.6 µg/mL).

On to `Cc1cccc(-c2nn(-c3ccccc3)cc2C(=O)Oc2ccccc2-c2nc3ccccc3s2)c1` [Z26889353], for which the MIC amounted to 100 µM (≈ 48.8 µg/mL).

In the case of `O=C(CN1CCCC1c1ccc2c(c1)OCCCO2)Nc1ccccc1Cc1ccccc1` (stereo not drawn) [Z65195872], the MIC worked out at 50 µM (≈ 22.1 µg/mL).

`Cc1ccc2nc(-c3ccc(NC(=O)c4cccc(S(=O)(=O)Nc5cccc(C(F)(F)F)c5)c4)cc3)sc2c1` [Z56810513]: the MIC turned out to be 6.2 µM (≈ 3.52 µg/mL).

For `Cc1nn(-c2ccccc2)c2sc(C(=O)N=C3N=C4C=CC(Br)=CN4Cc4ccccc43)cc12` [Z56688850], the MIC worked out at 100 µM (≈ 52.8 µg/mL).

Take `Clc1ccc(-c2nc(NN=Cc3ccc4ccccc4n3)nc3ccccc23)cc1` [Z1187818773]: the MIC is 100 µM (≈ 41 µg/mL).

As for `O=C(Nc1nc(-c2cccs2)cs1)c1cc(-c2ccccc2)nc2ccccc12` [Z28307167], the MIC was determined as 100 µM (≈ 41.4 µg/mL).

As for `O=C(Cn1c2ccccc2c(=O)c2ccccc21)NC(c1ccccc1)c1cc2ccccc2o1` (stereo not drawn) [Z229616646], the MIC came out at 100 µM (≈ 45.9 µg/mL).

Take `Nc1c(-c2ccccc2)c(CN2CCN(c3ccccc3F)CC2)nn1-c1ccc(F)cc1` [Z56903079]: the MIC is 25 µM (≈ 11.1 µg/mL).

Take `c1cncc(-c2nc(N3CCN(Cc4ccc5ccccc5c4)CC3)c3ccccc3n2)c1` [Z237483836]: the MIC was 100 µM (≈ 43.2 µg/mL).

On to `Cc1ccc(-c2cc(C(=O)N3CCN(Cc4ccncc4)CC3)c3ccccc3n2)cc1` [Z70806128], for which the MIC was determined as 100 µM (≈ 42.3 µg/mL).

Consider `Cc1cccc(Oc2ccc(NC(=O)c3nn(-c4ccccc4)c(=O)c4ccccc34)cc2)c1` [Z29906038], for which the MIC stood at 100 µM (≈ 44.7 µg/mL).

As to `O=C(COC(=O)c1cc(-c2ccccc2)nn1-c1ccccc1)NC(c1ccccc1)c1ccccc1` [Z15852380], the MIC is 100 µM (≈ 48.8 µg/mL).

On to `O=C(CN1C(=O)NC2(CCc3ccccc32)C1=O)c1c(-c2ccc(F)cc2)[nH]c2ccccc12` (stereo not drawn) [Z89714290], for which the MIC was 25 µM (≈ 11.3 µg/mL).

Regarding `O=C(N=C1N=C2C=CC=CN2Cc2ccccc21)c1cn(-c2ccccc2)nc1-c1ccc(F)cc1` [Z56787786], the MIC is 100 µM (≈ 47.4 µg/mL).

Turning to `O=C(NCc1ccccc1)c1ccc(Oc2nc(-c3ccccc3)cc(-c3ccccc3)n2)cc1` [Z1037335532], the MIC came out at 100 µM (≈ 45.8 µg/mL).

Turning to `O=C(NN1C(=O)NC(c2ccccc2)(c2ccccc2)C1=O)c1ccc(-c2ccccc2F)o1` [Z137249014], the MIC is 100 µM (≈ 45.5 µg/mL).

As to `COc1cc2c(cc1NC(=O)c1ccccc1-c1ccc(C(F)(F)F)cc1)oc1ccccc12` [Z30927947], the MIC was 100 µM (≈ 46.1 µg/mL).

Turning to `O=C(COC(=O)c1c2c(nc3ccccc13)CCN(Cc1ccccc1)C2)Nc1c(F)cccc1F` [Z55704575], the MIC amounted to 100 µM (≈ 48.8 µg/mL).

As for `O=C(c1nn(-c2ccccc2)c(=O)c2ccccc12)N1CCCN(Cc2ccc(Cl)cc2)CC1` [Z212593638], the MIC was determined as 50 µM (≈ 23.6 µg/mL).

As to `Fc1ccccc1C1Oc2ccccc2C2CC(c3ccc(-c4ccccc4)cc3)=NN21` (stereo not drawn) [Z56764284], the MIC came out at 100 µM (≈ 42 µg/mL).

Consider `Cc1ccc2c(-c3ccccc3)nc(NN=Cc3cnc4ccccc4n3)nc2c1` [Z2488926519], for which the MIC was found to be 100 µM (≈ 39 µg/mL).

On to `O=C(CN1C(=O)NC2(CCc3ccccc32)C1=O)NC(c1ccccc1)c1ccc(Cl)cc1` (stereo not drawn) [Z65674656], for which the MIC amounted to 100 µM (≈ 46 µg/mL).

Consider `O=C(CN1C(=O)NC(c2ccccc2)(c2ccccc2)C1=O)NC(c1ccccc1)c1ccccc1` [Z14474580], for which the MIC turned out to be 100 µM (≈ 47.6 µg/mL).

As to `O=C(Nc1ccc2c(c1)OCO2)C1CCN(C(=O)c2nn(-c3ccccc3)c(=O)c3ccccc23)CC1` [Z99494278], the MIC was found to be 100 µM (≈ 49.7 µg/mL).

For the molecule `O=C1c2ccccc2C(=O)N1C(Cc1ccccc1)c1nc2c3ccccc3ncn2n1` (stereo not drawn) [Z2176371175], the MIC turned out to be 100 µM (≈ 41.9 µg/mL).

Turning to `CCn1c2ccccc2c2cc(NC(=O)c3cc(-c4ccccc4)nc4ccccc34)ccc21` [Z30593627], the MIC stood at 100 µM (≈ 44.2 µg/mL).

For `Cc1ccc(-c2nn(Cc3ccccc3)cc2C2NC(=O)c3ccccc3N2)cc1` (stereo not drawn) [Z94792468], the MIC amounted to 100 µM (≈ 39.4 µg/mL).

With `O=C(CCc1ccc(-c2ccccc2)o1)N1CCN(c2ccnc3cc(Cl)ccc23)CC1` [Z285125220], the MIC worked out at 100 µM (≈ 44.6 µg/mL).

`Nc1nn(C(=O)c2cc(S(=O)(=O)Nc3cccc(C(F)(F)F)c3)ccc2Cl)c2ccccc12` [Z381337772]: the MIC turned out to be 100 µM (≈ 49.5 µg/mL).

For the molecule `Oc1nc2cc(Cl)ccc2c(-c2ccccc2)c1-c1cc(-c2ccccc2)c2ccc(Cl)cc2n1` [Z2010009645], the MIC was determined as 100 µM (≈ 49.3 µg/mL).

`O=C(c1ccccc1)c1ccc(Cl)cc1Nc1cc(-c2ccccc2)c2ccc(Cl)cc2n1` [Z1386458621]: the MIC is 100 µM (≈ 46.9 µg/mL).

For the molecule `O=C(Nc1ccc(-n2cnc3ccccc32)cc1)c1nn(-c2ccccc2)c(=O)c2ccccc12` [Z82203216], the MIC was 100 µM (≈ 45.7 µg/mL).

Consider `Cc1ccc(-c2nn(-c3ccccc3)cc2CCC(=O)Nc2cccc3ccccc23)cc1` [Z56806542], for which the MIC stood at 100 µM (≈ 43.2 µg/mL).

As for `O=C(Nc1ccc(F)cc1)C(c1ccccc1)N1C(=O)NC(c2ccccc2)(c2ccccc2)C1=O` (stereo not drawn) [Z14471296], the MIC amounted to 100 µM (≈ 48 µg/mL).

Regarding `O=C(c1ccc2noc(-c3ccccc3)c2c1)N1CCN(Cc2ccc3c(c2)CCO3)CC1` [Z102669950], the MIC was determined as 100 µM (≈ 44 µg/mL).

Turning to `O=C(Nc1cn(-c2ccccc2)nc1-c1ccc(F)cc1)Nc1cccc2ccccc12` [Z85924883], the MIC worked out at 100 µM (≈ 42.2 µg/mL).
